Earlier results as cited in patent US6869622B2, “Composition for improving sleep quality and efficiency, and methods of preparing and using the composition” (Ancile Pharmaceuticals, Inc., priority 1999, dated 2005).
Like-named read-outs stand apart in the source and are kept apart here.

Tests used:
mice [1] = system: mice
mice [2] = settings: 12.5 and 25 mg/kg, IP in mice
mouse = settings: 50 and 100 mg/kg, IP
[3] = system: enzyme system which catalyses breakdown of GABA in the brain; settings: 1 mmole/liter
[4] = system: AMES assay and the SOS-chromo-test
mice [5] = settings: 26 mg/kg, IP or PO

SMILES: CC1=C2[C@H](/C=C(\C)C(=O)O)CC[C@@H](C)[C@H]2CC1 [valerenic acid, Valerenic Acid]
- Behavioural effects (mice [1]; 100 mg/kg intraperitoneally, mice): decrease in motor activity, a decrease in respiratory rate, absence of righting reflex, ataxia, a decrease of abdominal muscle tone, and a decrease in rotarod performance
- Performance on rotarod and traction tests (mice [1]; 100 mg/kg, IP): statistical significance
- Picrotoxin induced convulsions (mice [2]): antagonized
- Pentobarbital induced sleeping time (mouse): potentiate
- Inhibition of enzyme system which catalyses breakdown of GABA [3]: 20%

SMILES: CC(=O)OCc1cocc2c(C=O)ccc1-2 [baldrinal]
- Genotoxicity in vitro ([4]; AMES assay and SOS-chromo-test): direct mutagenic effects
- Metabolic degradation of 14C-methacetin (mice [5]): distinctly inhibited

SMILES: CC(=O)O[C@@H]1CC(C)=C2[C@H]1[C@H](C)CC[C@H]2/C=C(\C)C(=O)O [acetoxyvalerenic acid, Acetoxyvalerenic Acid]
- Inhibition of enzyme system which catalyses breakdown of GABA [3]: 38%

SMILES: CC(C)CC(=O)OCc1cocc2c(C=O)ccc1-2 [homobaldrinal]
- Genotoxicity in vitro [4]: direct mutagenic effects
